The text below walks through data of ChEMBL document CHEMBL1201862, “PubChem BioAssay data set” (2004).

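Cells were grown in 96-well plates and exposed to each compound for 48 hours at five concentrations; endpoints were interpolated linearly between bracketing concentrations, or set to the highest concentration if not reached. At the GI50, growth is halved.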 The source made the active and inactive calls. Cut-off read from the data, not from the text of the source: active = GI50 up to about 1.1 µM and inactive = higher.

Some test systems named below: U-251; HCT-15; 786-0; ACHN; HCT-116; SK-MEL-28; K562; Hs-578T; DU-145; MCF7; NCI-H522; A549; RPMI-8226; LOX IMVI; NCI/ADR-RES; HT-29; SW-620; SNB-19; SR; BT-549.
Common to all, as to experiment: DTP human tumour cell line panel, 48 h

In general, GI50 refers to the concentration at which growth is held to half of that of the control. As to `Cc1cc(C)c2c(-c3ccccc3)cc(=O)[nH]c2c1`, the GI50 with U-251 was > 100 µM (inactive); in the assay with HCT-15, more than 100 µM; in the assay on 786-0, > 100 µM (inactive); in the assay on ACHN, > 100 µM (inactive); in the assay on HCT-116 it was > 100 µM (inactive); in the assay on SK-MEL-28, > 100 µM (inactive). The GI50 in the assay on K562, in the assay with Hs-578T, in the assay on DU-145, in the assay with MCF7, with NCI-H522 and in the assay with A549 was > 100 µM (inactive) throughout. The GI50 in the assay on RPMI-8226, with LOX IMVI, with NCI/ADR-RES, in the assay on HT-29 and in the assay with SW-620 was > 100 µM (inactive) in each case.
For `C[C@H](N)C(=O)Nc1ccc(-c2nc3ccccc3s2)cc1`, the GI50 is 22.4 µM (inactive) with SNB-19; 16.9 µM (inactive) in the assay on U-251; 17.7 µM with HCT-15; 15.7 µM (inactive) in the assay on 786-0; 17.4 µM (inactive) in the assay on ACHN; 15.1 µM (inactive) with SR. The GI50 with HCT-116 was 15.2 µM (inactive); in the assay on SK-MEL-28 it was 18.5 µM (inactive); in the assay with K562, 21.5 µM (inactive); with Hs-578T, 37.8 µM (inactive); with DU-145 it was 18.4 µM (inactive); in the assay on BT-549, > 100 µM (inactive). The GI50 with NCI-H522 is 18.5 µM (inactive); with A549, 15.6 µM (inactive); in the assay on LOX IMVI, 19.1 µM (inactive); in the assay on NCI/ADR-RES it was 28.6 µM (inactive); in the assay on HT-29 it was 20.9 µM (inactive); in the assay on SW-620, 17.2 µM (inactive).
Turning to `CN1CCN(c2ccc3nc(-c4cc(O)c5c(nc(CO)n5C)c4O)[nH]c3n2)CC1`, the GI50 is 52.2 µM (inactive) in the assay on SNB-19; 15.1 µM (inactive) with U-251; more than 100 µM in the assay on HCT-15; 52.6 µM (inactive) in the assay on 786-0; 36.1 µM (inactive) in the assay on ACHN; 41.9 µM (inactive) in the assay on HCT-116. Also, the GI50 in the assay with SK-MEL-28 is > 100 µM (inactive); in the assay with K562 it was 28.8 µM (inactive); in the assay on Hs-578T, > 100 µM (inactive); in the assay on DU-145 it was 43.8 µM (inactive); with BT-549, > 100 µM (inactive); with NCI-H522, 20.1 µM (inactive). The GI50 in the assay with A549 was 69.2 µM (inactive); in the assay on RPMI-8226, 22.6 µM (inactive); in the assay on LOX IMVI it was 17.1 µM (inactive); with NCI/ADR-RES, > 100 µM (inactive); in the assay with HT-29, 31.3 µM (inactive); with SW-620 it was 39.2 µM (inactive).
Regarding `CN1CCN([C@H]2C[C@H]3[C@@H]4CC=C5C[C@@H](N6CCCC6)CC[C@]5(C)[C@H]4CC[C@]3(C)[C@H]2O)CC1`, the GI50 is 90.4 µM (inactive) with SNB-19; 59.2 µM (inactive) in the assay with U-251; 38.4 µM in the assay with HCT-15; 38.4 µM (inactive) in the assay with 786-0; > 100 µM (inactive) in the assay with ACHN; < 0.01 µM (active) in the assay with SR. Moreover, the GI50 is 22 µM (inactive) in the assay on HCT-116; 20.6 µM (inactive) in the assay with SK-MEL-28; 14.9 µM (inactive) in the assay with K562; > 100 µM (inactive) with Hs-578T; > 100 µM (inactive) in the assay with MCF7; 95.5 µM (inactive) in the assay with BT-549. Besides, the GI50 with NCI-H522 was > 100 µM (inactive); with A549, 37.8 µM (inactive); with RPMI-8226, 24.9 µM (inactive); with LOX IMVI, 19.6 µM (inactive); with NCI/ADR-RES, > 100 µM (inactive); in the assay with HT-29, 8 µM (inactive). For the same molecule, in the assay with SW-620, the GI50 is 33.4 µM (inactive).
As to `COc1cc([C@@H]2c3cc4c(cc3[C@@H](NCCNCCO)[C@H]3COC(=O)[C@H]23)OCO4)cc(OC)c1O`, the GI50 is 0.836 µM (active) with SNB-19; 0.813 µM (active) in the assay on U-251; 34.6 µM with HCT-15; 0.762 µM (active) with 786-0; 2 µM (inactive) with HCT-116; 2.67 µM (inactive) in the assay on SK-MEL-28. Further, the concentration for 50% growth inhibition (GI50) in the assay on K562 is 1.04 µM (active); in the assay on Hs-578T, 2.63 µM (inactive); in the assay with BT-549 it was 2.14 µM (inactive); in the assay with A549, 0.406 µM (active); in the assay with NCI/ADR-RES it was > 99.5 µM (inactive); in the assay on HT-29, 2 µM (inactive). For the same molecule, the GI50 in the assay with SW-620 was 2.84 µM (inactive).
With `CCCCCCCCCCCCc1ccc(S(=O)(=O)O)cc1`, the GI50 in the assay on SNB-19 is > 100 µM (inactive); with U-251 it was 89.7 µM (inactive); in the assay on HCT-15 it was more than 100 µM; in the assay with 786-0, > 100 µM (inactive); in the assay with ACHN, > 100 µM (inactive); in the assay with HCT-116 it was > 100 µM (inactive). Moreover, the GI50 in the assay with SK-MEL-28 is > 100 µM (inactive); in the assay on K562, > 100 µM (inactive); in the assay with Hs-578T, > 100 µM (inactive); with DU-145, > 100 µM (inactive); with MCF7, 98.9 µM (inactive); in the assay on A549, > 100 µM (inactive). The GI50 with RPMI-8226 was > 100 µM (inactive); in the assay with LOX IMVI, 49.5 µM (inactive); in the assay on NCI/ADR-RES it was > 100 µM (inactive); in the assay with HT-29 it was > 100 µM (inactive); in the assay with SW-620, > 100 µM (inactive).
With `CC12CC3c4ccccc4CN1C3(c1ccccc1)OC2=O` (centres undefined), the GI50 was > 100 µM (inactive) in the assay on SNB-19; > 100 µM (inactive) with U-251; more than 100 µM in the assay on HCT-15; > 100 µM (inactive) in the assay with 786-0; > 100 µM (inactive) in the assay with ACHN; > 100 µM (inactive) with HCT-116. Moreover, the GI50 in the assay on SK-MEL-28, with Hs-578T, with DU-145, with BT-549, in the assay on NCI-H522 and in the assay on A549 was > 100 µM (inactive) in each case. For the same molecule, the GI50 in the assay on LOX IMVI, in the assay with NCI/ADR-RES, with HT-29 and in the assay with SW-620 was > 100 µM (inactive) throughout.
For the molecule `COC(=O)/C=C(/C=C1/C(C#N)=C(N)N(c2ccc(Cl)cc2)C1(C)/C(=C/C(=O)OC)C(=O)OC)C(=O)OC` (centres undefined), the GI50 was > 100 µM (inactive) with SNB-19; 41.4 µM (inactive) in the assay with U-251; 23.8 µM in the assay on HCT-15; 40.3 µM (inactive) in the assay on 786-0; 42.7 µM (inactive) in the assay on ACHN; 29.6 µM (inactive) with SR. For the same molecule, the GI50 in the assay with HCT-116 is 28.9 µM (inactive); with SK-MEL-28, > 100 µM (inactive); in the assay with K562 it was 20.6 µM (inactive); in the assay on DU-145, 60.3 µM (inactive); in the assay on MCF7 it was 78.3 µM (inactive); in the assay with NCI-H522, 33.2 µM (inactive). In addition, the GI50 with RPMI-8226 was 24.7 µM (inactive); in the assay on LOX IMVI, 23.9 µM (inactive); in the assay with NCI/ADR-RES, 53 µM (inactive); in the assay with HT-29, 33.4 µM (inactive); in the assay with SW-620 it was 32.7 µM (inactive).
Take `O=C(O)c1cc2ccccc2c(/N=N/c2ccccc2)c1O`: the GI50 in the assay with SNB-19 was 26.1 µM (inactive); with U-251 it was 12.8 µM (inactive); with HCT-15, 27.9 µM; in the assay with 786-0 it was 33.5 µM (inactive); in the assay on ACHN, 26.2 µM (inactive); in the assay on HCT-116 it was 35.4 µM (inactive). Also, the GI50 in the assay on SK-MEL-28 is 29.8 µM (inactive); in the assay with K562, 36.8 µM (inactive); with Hs-578T, 6.82 µM (inactive); in the assay on DU-145, 14.5 µM (inactive); with BT-549 it was 20.8 µM (inactive); in the assay with NCI-H522, 26.6 µM (inactive). For the same molecule, the GI50 with A549 is 18.1 µM (inactive); in the assay on RPMI-8226, 21.6 µM (inactive); in the assay on NCI/ADR-RES, 27.2 µM (inactive); in the assay on HT-29 it was 11.8 µM (inactive); in the assay with SW-620, 23.8 µM (inactive).
Turning to `COc1ccc2c(ccc3c(COC(=O)NC(C)C)c(COC(=O)NC(C)C)n(C)c32)c1`, the GI50 is 14.2 µM (inactive) with SNB-19; 15.1 µM (inactive) in the assay on U-251; 9.79 µM in the assay on HCT-15; 3.26 µM (inactive) with 786-0; 1.81 µM (inactive) with ACHN; 0.655 µM (active) in the assay on SR. In addition, the GI50 was 6.04 µM (inactive) in the assay with HCT-116; 6.08 µM (inactive) in the assay with K562; 13.7 µM (inactive) in the assay with Hs-578T; 4.75 µM (inactive) with MCF7; 11.9 µM (inactive) in the assay with BT-549; 2.36 µM (inactive) with NCI-H522. The GI50 with A549 is 11.3 µM (inactive); with RPMI-8226, 10 µM (inactive); in the assay with LOX IMVI it was 4.62 µM (inactive); in the assay with NCI/ADR-RES, 5.01 µM (inactive); with HT-29, 10.8 µM (inactive); with SW-620 it was 11.5 µM (inactive).
Turning to `Cc1c(-c2ccc(O)cc2)n(CCCCCCNCCOC(=O)NCCCc2ccc(N(CCCl)CCCl)cc2)c2ccc(O)cc12`, the GI50 with SNB-19 was 13.2 µM (inactive); in the assay with U-251 it was 3.07 µM (inactive); in the assay with HCT-15 it was 1.79 µM; in the assay on 786-0, 1.59 µM (inactive); in the assay with ACHN, 3.71 µM (inactive); with SR, 0.809 µM (active). Moreover, the GI50 is 1.52 µM (inactive) with HCT-116; 4.21 µM (inactive) in the assay on SK-MEL-28; 2.67 µM (inactive) in the assay with K562; 1.98 µM (inactive) with Hs-578T; 1.83 µM (inactive) in the assay with DU-145; 0.766 µM (active) in the assay on MCF7. Also, the GI50 with BT-549 was 12.4 µM (inactive); in the assay with NCI-H522, 1.69 µM (inactive); in the assay on A549 it was 1.88 µM (inactive); with RPMI-8226, 1.31 µM (inactive); with LOX IMVI, 1.5 µM (inactive); in the assay with HT-29 it was 1.59 µM (inactive). Further, in the assay with SW-620, the GI50 is 2.15 µM (inactive).
